Results taken from US6506751B1, “Thiazolidinone compounds useful as chemokine inhibitors” (Millennium Pharmaceuticals, Inc., priority 1999, dated 2003).

Target: T1, CCR-5 receptor (Homo sapiens, UniProt P51681)
T1 construct: membranes prepared from CCR-5/L 1.2 cells; expressed in transfected cells; host or cells: L1.2 cells (CCR-5/L 1.2), membrane preparation
Assay: 125I-gp120/sCD4/CCR-5 binding assay (CCR-5 receptor binding assay)
Conditions: for inhibition at 10 µM / % Inhib. @ 10 μM: 10 μM compound, 125I-gp120/sCD4 binding to membranes from CCR-5/L 1.2 cells; for inhibition at 10 µM: read-out: % Inhib. @ 10 μM; for IC50: block of 125I-gp120 (HIV-1 JR-FL)/sCD4 binding to membranes from CCR-5/L 1.2 cells
Experimental: The ^125I-gp120/sCD4/CCR-5 binding assay is carried out similarly as described in Wu et al., Nature, 1996;384:179-183. Briefly, the envelope gp120 protein derived from HIV-1 JR-FL (Trkola et al., Nature, 1996;384:184-186), a M-tropic strain, is iodinated using solid phase lactoperoxidase to a specific activity of 20 μCi/μg. For each binding reaction (in a final volume of 100 μL binding buffer [50 mM HEPES, pH 7.5, 1 mM CaCl2, 5 mM MgCl2, and 0.5% BSA]), 25 μL (2.5 μg) of membranes prepared from CCR-5/L 1.2 cells are mixed with 25 μL (3 nM) sCD4, followed by 25 μL (0.1 nM) radiolabeled gp120 in the presence or absence of 25 μL compound dissolved in DMSO (final concentration of DMSO 0.5%). The reactions are incubated at room temperature for 45 to 60 minutes and stopped by transferring the mixture to GFB filter plates, which are then washed 3 to 4 times with binding buffer containing 0.5 M NaCl. The plates are dried and MicroScint scintillation fluid is added before counting.

T1 sequence (P51681 whole entry): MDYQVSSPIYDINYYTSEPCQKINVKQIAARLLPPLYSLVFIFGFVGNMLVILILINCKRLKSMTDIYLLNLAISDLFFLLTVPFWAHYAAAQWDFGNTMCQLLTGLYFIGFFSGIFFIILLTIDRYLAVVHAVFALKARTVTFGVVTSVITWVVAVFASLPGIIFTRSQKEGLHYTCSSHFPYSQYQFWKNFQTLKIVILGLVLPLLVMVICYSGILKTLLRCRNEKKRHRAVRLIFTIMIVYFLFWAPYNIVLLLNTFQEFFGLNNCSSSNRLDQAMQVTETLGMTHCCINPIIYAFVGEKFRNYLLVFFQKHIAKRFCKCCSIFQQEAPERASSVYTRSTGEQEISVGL

Compound	inhibition at 10 µM	IC50	also measured
O=C1C(=Cc2cccc(Cl)c2)SC(c2cccc(C(F)(F)F)c2)N1CCCN1CCN(c2ncccn2)CC1 (centres unmarked) [Compound 45, 5-(3-Chloro-benzylidene)-3-[3-(4-pyrimidin-2-yl-piperazin-1-yl)-propyl]-2-(3-trifluoromethyl-phenyl)-thiazolidin-4-one]	57.7%		
O=C1C(=Cc2cccc(Cl)c2)SC(c2cccc(Cl)c2)N1CCCN1CCN(C2CCCCC2)CC1 (centres unmarked) [Compound 52, 5-(3-Chloro-benzylidene)-2-(3-chloro-phenyl)-3-[3-(4-cyclohexyl-piperazin-1-yl)-propyl]-thiazolidin-4-one]	43.7%		
O=C1/C(=C\c2cccc(F)c2)SC(c2cccc(Cl)c2)N1CCCN1CCC(N2CCCCC2)CC1 (centres unmarked) [Compound 22, 3-(3-[1,4′]Bipiperidinyl-1′-yl-propyl)-2-(3-chlorophenyl)-5-(3-fluorobenzylidene)-thiazolidin-4-one]		400 nM	
O=C1C(=Cc2cccc(Cl)c2)SC(c2cccc(C(F)(F)F)c2)N1CCCN1CCN(C2CCCCC2)CC1 (centres unmarked) [Compound 46, 5-(3-Chloro-benzylidene)-3-[3-(4-cyclohexyl-piperazin-1-yl)-propyl]-2-(3-rifluoromethyl-phenyl)-thiazolidin-4-one]			% Inhib. @ 10 μM: 51.1%
Cn1cccc1C=C1SC(c2cccc(Cl)c2)N(CCCN2CCCCC2)C1=O (centres unmarked) [Compound 11, 2-(3-Chlorophenyl)-5-(1-methyl-1H-pyrrol-2-ylmethylene)-3-(3-piperidin-1-yl-propyl)-thiazolidin-4-one]		980 nM	
O=C1C(=Cc2ccccc2)SC(c2cccc(Cl)c2)N1CCCN1CCN(c2ccccn2)CC1 (centres unmarked) [Compound 40, 5-Benzylidene-2-(3-chloro-phenyl)-3-[3-(4-pyridin-2-yl-piperazin-1-yl)-propyl]-thiazolidin-4-one]	84.3%		
O=C1/C(=C\c2ccccc2)SC(c2cccc(Cl)c2)N1CCCN1CCCCC1 (centres unmarked) [Compound 3, 5-Benzylidene-2-(3-chlorophenyl)-3-(3-piperidin-1-yl-propyl)-thiazolidin-4-one]		280 nM	
CCC(/C=C1/SC(c2cccc(Cl)c2)N(CCCN2CCCCC2)C1=O)CC (centres unmarked) [Compound 12, 2-(3-Chlorophenyl)-5-(2-ethylbutylidene)-3-(3-piperidin-1-yl-propyl)-thiazolidin-4-one]		6640 nM	
O=C1C(=Cc2cccc(C(F)(F)F)c2)SC(c2cccc(Cl)c2)N1CCCN1CCN(c2ncccn2)CC1 (centres unmarked) [Compound 32]			% Inhib. @ 10 μM: 81.8%
O=C1/C(=C\c2cccc(F)c2)SC(c2ccccc2)N1CCCN1CCOCC1 (centres unmarked) [Compound 7, 5-(3-Fluorobenzylidene)-3-(3-morpholin-4-yl-propyl)-2-phenyl-thiazolidin-4-one]		140 nM	
O=C1C(=Cc2cccc(Cl)c2)SC(c2cccc(F)c2)N1CCCN1CCN(c2ncccn2)CC1 (centres unmarked) [Compound 48, 5-(3-Chloro-benzylidene)-2-(3-fluoro-phenyl)-3-[3-(4-pyrimidin-2-yl-piperazin-1-yl)-propyl]-thiazolidin-4-one]	84.7%		
O=C1/C(=C\c2ccncc2)SC(c2cccc(Cl)c2)N1CCCN1CCCCC1 (centres unmarked) [Compound 8, 2-(3-Chlorophenyl)-3-(3-piperidin-1-yl-propyl)-5-(pyridin-4-yl-methylene)-thiazolidin-4-one]		780 nM	
O=C1/C(=C\c2cccc(F)c2)SC(c2cccc(Cl)c2)N1CCCN1CCCCC1 (centres unmarked) [Compound 4, 2-(3-Chlorophenyl)-5-(3-fluorobenzylidene)-3-(3-piperidin-1-yl-propyl)-thiazolidin-4-one]		200 nM	
O=C1C(=Cc2cccc(C(F)(F)F)c2)SC(c2cccc(Cl)c2)N1CCCN1CCN(c2ccccn2)CC1 (centres unmarked) [Compound 30, 2-(3-Chloro-phenyl)-3-[3-(4-pyridin-2-yl-piperazin-1-yl)-propyl]-5-(3-trifluoromethyl-benzylidene)-thiazolidin-4-one]	61.7%		
O=C1C(=Cc2cccc(Cl)c2)SC(c2cccc(F)c2)N1CCCN1CCN(C2CCCCC2)CC1 (centres unmarked) [Compound 49, 5-(3-Chloro-henzylidene)-3-[3-(4-cyclohexyl-piperazin-1-yl)-propyl]-2-(3-fluoro-phenyl)-thiazolidin-4-one]			% Inhib. @ 10 μM: 54.0%
O=C1C(=Cc2ccccc2)SC(c2cccc(C(F)(F)F)c2)N1CCCN1CCN(c2ccccn2)CC1 (centres unmarked) [Compound 33, 5-Benzylidene-3-[3-(4-pyridin-2-yl-piperazin-1-yl)-propyl]-2-(3-trifluoromethyl-phenyl)-thiazolidin-4-one]	62%		
O=C1C(=Cc2cccc(F)c2)SC(c2cccc(F)c2)N1CCCN1CCN(c2ccccn2)CC1 (centres unmarked) [Compound 26, 5-(3-Fluoro-benzylidene)-2-(3-fluoro-phenyl)-3-[3-(4-pyridin-2-yl-piperazin-1-yl)-propyl]-thiazolidin-4-one]	75.3%		
O=C1C(=Cc2ccccc2)SC(c2cccc(Cl)c2)N1CCCN1CCOCC1 (centres unmarked) [Compound 42, 5-Benzylidene-2-(3-chloro-phenyl)-3-(3-morpholin-4-yl-propyl)-thiazolidin-4-one]	64.7%		
O=C1C(=Cc2ccccc2)SC(c2cccc(F)c2)N1CCCN1CCN(C2CCCCC2)CC1 (centres unmarked) [Compound 38, 5-Benzylidene-3-[3-(4-cyclohexyl-piperazin-1-yl)-propyl]-2-(3-fluoro-phenyl)-thiazolidin-4-one]	54.4%		
CN(C)CC(C)(C)/C=C1/SC(c2cccc(Cl)c2)N(CCCN2CCCCC2)C1=O (centres unmarked) [Compound 13, 2-(3-Chlorophenyl)-5-(3-dimethylamino-2,2-dimethylpropylidene)-3-(3-piperidin-1-yl-propyl)-thiazolidin-4-one]		2820 nM	
O=C1C(=Cc2cccc(C(F)(F)F)c2)SC(c2cccc(Cl)c2)N1CCCN1CCCCC1 (centres unmarked) [Compound 31, 2-(3-Chloro-phenyl)-3-(3-piperidin-1-yl-propyl)-5-(3-trifluoromethyl-benzylidene)-thiazolidin-4-one]	54.4%		
O=C1/C(=C\c2ccsc2)SC(c2cccc(Cl)c2)N1CCCN1CCCCC1 (centres unmarked) [Compound 10, 2-(3-Chlorophenyl)-3-(3-piperidin-1-yl-propyl)-5-(thiophen-3-yl-methylene)-thiazolidin-4-one]		1040 nM	
O=C1C(=Cc2ccccc2)SC(c2cccc(F)c2)N1CCCN1CCC(N2CCCCC2)CC1 (centres unmarked) [Compound 37, 5-Benzylidene-3-(3-[1,4′]bipiperidinyl-1′-yl-propyl)-2-(3-fluoro-phenyl)-thiazolidin-4-one]	56.6%		
O=C1/C(=C\c2ccc[nH]2)SC(c2cccc(Cl)c2)N1CCCN1CCCCC1 (centres unmarked) [Compound 9, 2-(3-Chlorophenyl)-3-(3-piperidin-1-yl-propyl)-5-(1 H-pyrrol-2-yl-methylene)-thiazolidin-4-one]		390 nM	
O=C1/C(=C\c2cnc3ccccc3c2)SC(c2cccc(Cl)c2)N1CCCN1CCCCC1 (centres unmarked) [Compound 18, 2-(3-Chlorophenyl)-3-(3-piperidin-1-yl-propyl)-5-(quinolin-3-ylmethylene)-thiazolidin-4-one]		4120 nM	
O=C1C(=Cc2ccccc2)SC(c2cccc(Cl)c2)N1CCCN1CCN(c2ncccn2)CC1 (centres unmarked) [Compound 43, 5-Benzylidene-2-(3-chloro-phenyl)-3-[3-(4-pyrimidin-2-yl-piperazin-1-yl)-propyl]-thiazolidin-4-one]	95%		
